Data taken from patent publication US20240208972A1, “LRRK2 INHIBITORS AND USES THEREOF” (NEURON23, INC., priority 2022, published 2024).

Tests used:
[1] = system: Caco-2 cells; assay: Caco-2 bidirectional permeability; type: in vitro ADME; conditions: for Caco-2 A2B (10^−6 cm/s): A to B; for Caco-2 A2B (10^−6 cm/s) / Caco-2 B2A (10^−6 cm/s): HBSS pH 7.4, 2 hours; for Caco-2 B2A (10^−6 cm/s): B to A; for Caco-2 ER: Efflux Ratio=Papp (BA)/Papp (AB)
In short: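 Caco-2 monolayers grown 21–28 days on PET inserts were run in duplicate in HBSS with 10 mM HEPES, pH 7.4. Compound was tested in both directions at […] for 2 h at 37 °C and quantified by LC-MS/MS. Papp, % recovery and efflux ratio (B-A/A-B) were calculated, with lucifer yellow checking monolayer integrity.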

[2] = Human hepatocyte stability, in vitro h-Hept CLpredict; type: in vitro ADME; conditions: cryopreserved hepatocytes, predicted hepatic clearance, cells without asterisk, read-out: hHep Cl
In short: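 Cryopreserved human hepatocytes at 0.5×10^6 viable cells/mL in William's E medium, compound added from 100 μM solution, sampled 0–120 min in duplicate with LC/MS/MS quantitation. t1/2 from parent disappearance converted to CLint, then scaled to predicted hepatic clearance (well-stirred model, fub assumed 1) and extraction ratio.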

Structure (SMILES)	Caco-2 A2B (10^−6 cm/s) [1]	Caco-2 B2A (10^−6 cm/s) [1]	Caco-2 ER [1]	CLhep predicted at 1 µM [2] [mL/min/kg]
Cc1n[nH]c2c1N=C(c1c(F)cccc1F)Nc1c(F)cc(N3CCOCC3)cc1-2 [Example 30, 4-(5-(2,6-difluorophenyl)-7-fluoro-3-methyl-1,6-dihydrobenzo[d]pyrazolo[3,4-f][1,3]diazepin-9-yl)morpholine]	H (H (High permeability)”: A2B (B2A)>5)	H (H (High permeability)”: A2B (B2A)>5)	N (N (Non-substrate)”: ER<2.5)	6.3 to 14.7
CCc1n[nH]c2c1N=C(c1c(F)cccc1F)Nc1cnc(N3CCOCC3)cc1-2 [Example 31, 4-[8-(2,6-difluorophenyl)-5-ethyl-3,4,7,9,12-pentazatricyclo[8.4.0.02,6]tetradeca-1(10),2(6),4,7,11,13-hexaen-13-yl]morpholine]	H (H (High permeability)”: A2B (B2A)>5)	H (H (High permeability)”: A2B (B2A)>5)	N (N (Non-substrate)”: ER<2.5)	< 6.3
[2H]C([2H])([2H])c1n[nH]c2c1N=C(c1c(F)cccc1F)Nc1cnc(N3CCOCC3)cc1-2 [Example 32, 4-[8-(2,6-difluorophenyl)-5-(trideuteriomethyl)-3,4,7,9,12-pentazatricyclo[8.4.0.02,6]tetradeca-1(10),2(6),4,7,11,13-hexaen-13-yl]morpholine]	H (H (High permeability)”: A2B (B2A)>5)	H (H (High permeability)”: A2B (B2A)>5)	L (L (Likely)”: ER>2.5)	< 6.3
[2H]C([2H])([2H])c1n[nH]c2c1N=C(c1c(F)cccc1F)Nc1ccc(N3CCOCC3)cc1-2 [Example 33, 4-[5-(2,6-difluorophenyl)-3-(trideuteriomethyl)-1,6-dihydropyrazolo[4,3-d][1,3]benzodiazepin-9-yl]morpholine]	H (H (High permeability)”: A2B (B2A)>5)	H (H (High permeability)”: A2B (B2A)>5)	N (N (Non-substrate)”: ER<2.5)	< 6.3
[2H]C([2H])([2H])c1n[nH]c2c1N=C(c1c(F)cccc1F)Nc1ccc(N3CCO[C@@H](C)C3)cc1-2 [Example 34, (2S)-4-[5-(2,6-difluorophenyl)-3-(trideuteriomethyl)-1,6-dihydropyrazolo[4,3-d][1,3]benzodiazepin-9-yl]-2-methyl-morpholine]	H (H (High permeability)”: A2B (B2A)>5)	H (H (High permeability)”: A2B (B2A)>5)	N (N (Non-substrate)”: ER<2.5)	< 6.3
Cc1n[nH]c2c1N=C(c1c(F)cccc1F)Nc1c-2cc(N2CCO[C@@H](C)C2)nc1C [Example 40, (S)-4-(5-(2,6-difluorophenyl)-3,7-dimethyl-1,6-dihydropyrazolo[4,3-d]pyrido[4,3-f][1,3]diazepin-9-yl)-2-methylmorpholine]	H (H (High permeability)”: A2B (B2A)>5)	H (H (High permeability)”: A2B (B2A)>5)	N (N (Non-substrate)”: ER<2.5)	< 6.3
Cc1n[nH]c2c1N=C(c1c(F)cccc1F)N1CCc3nc(N4CCOCC4)cc-2c31 [Example 42, 4-[8-(2,6-difluorophenyl)-5-methyl-3,4,7,9,13-pentazatetracyclo[7.6.1.02,6.012,16]hexadeca-1(16),2(6),4,7,12,14-hexaen-14-yl]morpholine]	H (H (High permeability)”: A2B (B2A)>5)	H (H (High permeability)”: A2B (B2A)>5)	N (N (Non-substrate)”: ER<2.5)	6.3 to 14.7
Cc1n[nH]c2c1N=C(c1c(F)cccc1F)Nc1c-2cc(N2CC3(CCOCC3)C2)nc1C [Example 47, 2-[8-(2,6-difluorophenyl)-5,11-dimethyl-3,4,7,9,12-pentazatricyclo[8.4.0.02,6]tetradeca-1(10),2(6),4,7,11,13-hexaen-13-yl]-7-oxa-2-azaspiro[3.5]nonane]	M (M (Moderate permeability)”: 1≤A2B (B2A)≤5)	H (H (High permeability)”: A2B (B2A)>5)	L (L (Likely)”: ER>2.5)	6.3 to 14.7
